Key:
[1] = test system: murine macrophage J774A.1; assay: Modified Boyden chamber migration (chemotaxis) assay; format: cell-based
Experimental: Chemotaxis and invasion assays were performed using a modified Boyden chamber migration assay. Zwirner et al. (1998) Eur. J. Immunol. 28: 1570-77; Wilkinson (1988) Methods Enzymol. 162: 38-50. Assays were set up on MultiScreen-MIC plates (Millipore, Billerica, Mass., USA) with polyvinylpyrrolidone-free polycarbonate membranes (5 μm pore size). Cells (murine macrophage J774A.1) were washed and resuspended in serum-free DMEM containing 0.2% BSA at 1×10^6 cells/ml. Fifty microliters of cells were added to the upper wells and 150 μl of chemoattractant in DMEM/0.2% BSA were added to the lower wells of the microchamber. Incubation time was for 4 h at 37° C. in an 8% CO2 atmosphere. After swiping cells off the upper side of the membrane, cells on the lower side were visualized by either staining and phase contrast microscopy, or fluorescence. Cells that had adhered to the membrane were stained using a DiffQuik staining kit (Dade Behring, Newark, Del.). Each experiment was performed in triplicate and the numbers of migrating cells were counted in five fields at ×200. Cells harvested with PBS-EDTA for fluorescent labeling were washed two times with PBS, then resuspended in serum-free medium containing calcein AM (5 μM). Cells were incubated for 30 min (37° C., 5% CO2) with gentle intermittent mixing. Calcein-labeled cells were washed twice, and calcein fluorescence ([…]) was measured using a SPECTRAmax™ GEMINI dual-scanning microplate spectrofluorometer. Fluorescence measurements were compared to a standard curve, generated by dilution of cells in PBS/BSA in 100 μl, dispensed into 96-well plates. Fluorescence was quantified as described above.

[2] = test system: VCAM-1 (CD106); assay: Endothelial adhesion molecule expression by ELISA, VCAM-1; format: cell-based, human
Experimental: Endothelial cell surface adhesion molecule expression was measured by ELISA, using anti-human CD54 (ICAM-1), CD106 (VCAM-1) and CD62E (E-Selectin) antibodies (Leinco Technologies, Inc., St. Louis, Mo.). The ELISA method was modified from previously described procedures.
Cells were then incubated with antibodies to VCAM-1, E-selectin, or ICAM-1 diluted 1:400 in PBS containing 5% FCS at 37° C. for 30 min. Wells were washed two times with PBS, then incubated with horseradish peroxidase (HRP)-conjugated goat anti-mouse IgG (Southern Biotechnology Associates, Birmingham, Ala., USA) in PBS/5% FCS at 37° C. for 30 min. The wells were washed four times with PBS, then incubated with H2O2/3,3′,5,5′-tetramethyl-benzidine peroxidase substrate (Pierce Chemical, Rockford, Ill., USA) for 30 min in the dark. The reaction was stopped by adding 25 μl of 8 N H2SO4, and the plates read on a microplate reader, blanking on wells stained with only secondary antibody. Each assay was performed in triplicate and the data are reported as the mean±SEM as a percentage of the expression level of the vehicle. To study the effect of cholesterol ozonation product 5a concentration (5-50 μM) on E-selectin expression, the assay was performed in an identical fashion as described above, with each point being the mean±SEM of at least duplicate measurements.

Compound: CC(C)CCC[C@@H](C)[C@H]1CCC2C(CC=O)C([C@@]3(C)CC[C@H](O)CC3=O)CC[C@@]21C (some centres unmarked) [4a, 3βHydroxy-5-oxo-5,6-secocholestan-6-al]
- recruitment (migration) of macrophages ([1]; 0-25 μM, 4 h, P<0.001): dose-dependent recruitment of macrophages
- migration of macrophages ([1]; compound co-incubated with BSA): macrophage migration still occurs
- migration of macrophages ([1]; compound complexed with native LDL (100 μg/ml)): no significant migration
- VCAM-1 levels ([2]; HAAE-1, 25 μM compound in the presence of LDL, 4 h): remain unchanged
- integrin expression (VCAM-1) ([2]; HAAE-1, not complexed with LDL): no effects

Reference: patent publication US20100003711A1, “Methods to identify therapeutic agents” (THE SCRIPPS RESEARCH INSTITUTE, priority 2005, published 2010)
